Patent US20150307938A1, “METHOD TO IDENTIFY A NOVEL CLASS OF IMMUNOLOGIC ADJUVANTS” (Lancell, L.L.C., priority 2011, published 2015)
Values joined by “and” are separate entries in the source; they are usually repeats but may differ in a detail not shown here. Identical values can stand only once.

Tested on: skin
Assay: Affymetrix microarray of skin, DBP-4 hr and analogs vs. untreated; gene selection by log-2 fold change, Wilcoxon, Kendall tau (Tables 8, 9)
Format: in vivo, mouse
Details: mouse, in vivo

CCCCOC(=O)c1ccccc1C(=O)OCCCC [DBP, dibutylphthalate]
DBP LogFold-Change Versus-Untreated: Csrp1: 0.81
DBP LogFold-Change Versus-Untreated: Cxcl1: 5.43
DBP LogFold-Change Versus-Untreated: Cxcl2: 4.56
DBP LogFold-Change Versus-Untreated: Cxcl16: 1.35
DBP LogFold-Change Versus-Untreated: Cyr61: 1.59
DBP LogFold-Change Versus-Untreated: Cytip: 1.19
DBP LogFold-Change Versus-Untreated: Deptor: 0.99
DBP LogFold-Change Versus-Untreated: Dusp6: 1.81
DBP LogFold-Change Versus-Untreated: Dusp7: 1.07
DBP LogFold-Change Versus-Untreated: Efhd2: 0.82
DBP LogFold-Change Versus-Untreated: Egr1: 1.50
DBP LogFold-Change Versus-Untreated: Eif1a: 0.97
DBP LogFold-Change Versus-Untreated: Epgn: 3.82
DBP LogFold-Change Versus-Untreated: Epha2: 0.82
DBP LogFold-Change Versus-Untreated: Errfi1: 0.89
DBP LogFold-Change Versus-Untreated: F2rl1: 0.78
DBP LogFold-Change Versus-Untreated: Fam43a: 0.81
DBP LogFold-Change Versus-Untreated: Fgfbp1: 1.01
DBP LogFold-Change Versus-Untreated: Fkbp5: 1.19
DBP LogFold-Change Versus-Untreated: Fosl1: 1.95
DBP LogFold-Change Versus-Untreated: Gjb2: 1.21
DBP LogFold-Change Versus-Untreated: Gpr35: 0.91
DBP LogFold-Change Versus-Untreated: Gpr65: 1.35
DBP LogFold-Change Versus-Untreated: Gyk: 1.00
DBP LogFold-Change Versus-Untreated: Gzmb: 1.30
DBP LogFold-Change Versus-Untreated: Havcr2: 1.89
DBP LogFold-Change Versus-Untreated: Hbegf: 1.76
DBP LogFold-Change Versus-Untreated: Hdc: 2.14
DBP LogFold-Change Versus-Untreated: Icam1: 2.66
DBP LogFold-Change Versus-Untreated: Ier2: 1.02
DBP LogFold-Change Versus-Untreated: Ier3: 1.85
DBP LogFold-Change Versus-Untreated: Il1b: 2.73
DBP LogFold-Change Versus-Untreated: Il1rl1: 0.91
DBP LogFold-Change Versus-Untreated: Il4ra: 0.81
DBP LogFold-Change Versus-Untreated: Il6: 3.05
DBP LogFold-Change Versus-Untreated: Il7r: 1.15
DBP LogFold-Change Versus-Untreated: Il10ra: 0.90
DBP LogFold-Change Versus-Untreated: Irs2: 0.94
DBP LogFold-Change Versus-Untreated: Jun: 1.06
DBP LogFold-Change Versus-Untreated: Junb: 1.39
DBP LogFold-Change Versus-Untreated: Kctd11: 0.80
DBP LogFold-Change Versus-Untreated: Klrb 1b: 1.25
DBP LogFold-Change Versus-Untreated: Krt6a: 1.53
DBP LogFold-Change Versus-Untreated: Krt35: 1.06
DBP LogFold-Change Versus-Untreated: LOC100504977: 3.10
DBP LogFold-Change Versus-Untreated: Map3k6: 1.03
DBP LogFold-Change Versus-Untreated: Map3k8: 1.01
DBP LogFold-Change Versus-Untreated: Mt1: 1.34
DBP LogFold-Change Versus-Untreated: Mt2: 1.11
DBP LogFold-Change Versus-Untreated: Nfil3: 1.60
DBP LogFold-Change Versus-Untreated: Nfkb2: 0.94
DBP LogFold-Change Versus-Untreated: Nr4a1: 2.09
DBP LogFold-Change Versus-Untreated: Nr4a2: 1.39
DBP LogFold-Change Versus-Untreated: Osmr: 0.95
DBP LogFold-Change Versus-Untreated: Otud7a: 1.25
DBP LogFold-Change Versus-Untreated: Pde4b: 1.44
DBP LogFold-Change Versus-Untreated: Plaur: 1.06
DBP LogFold-Change Versus-Untreated: Plk3: 1.00
DBP LogFold-Change Versus-Untreated: Pmaip1: 1.47
DBP LogFold-Change Versus-Untreated: Pprc1: 0.78
DBP LogFold-Change Versus-Untreated: Pqlc1: 0.87
DBP LogFold-Change Versus-Untreated: Prss22: 1.61
DBP LogFold-Change Versus-Untreated: Ptges: 1.22
DBP LogFold-Change Versus-Untreated: Pvr: 0.90
DBP LogFold-Change Versus-Untreated: Pyy: 2.62
DBP LogFold-Change Versus-Untreated: Rab20: 1.52
DBP LogFold-Change Versus-Untreated: Ramp3: 1.20
DBP LogFold-Change Versus-Untreated: Rgs1: 2.12
DBP LogFold-Change Versus-Untreated: Rnf19b: 1.15
DBP LogFold-Change Versus-Untreated: Serpine1: 2.68
DBP LogFold-Change Versus-Untreated: Slc7a5: 1.52
DBP LogFold-Change Versus-Untreated: Slc10a6: 1.33
DBP LogFold-Change Versus-Untreated: Slc25a25: 1.16
DBP LogFold-Change Versus-Untreated: Slc39a8: 1.52
DBP LogFold-Change Versus-Untreated: Slc39a14: 0.84
DBP LogFold-Change Versus-Untreated: Smox: 1.30 and 1.29 and 1.28
DBP LogFold-Change Versus-Untreated: Socs2: 1.26
DBP LogFold-Change Versus-Untreated: Socs3: 1.39
DBP LogFold-Change Versus-Untreated: Sprr1a: 1.43
DBP LogFold-Change Versus-Untreated: Stc1: 1.07
DBP LogFold-Change Versus-Untreated: Stk17b: 0.89
DBP LogFold-Change Versus-Untreated: Tnfaip2: 1.94
DBP LogFold-Change Versus-Untreated: Tnfaip3: 2.10
DBP LogFold-Change Versus-Untreated: Tnfaip6: 2.30
DBP LogFold-Change Versus-Untreated: Traf1: 1.07
DBP LogFold-Change Versus-Untreated: Uap1: 1.11
DBP LogFold-Change Versus-Untreated: Zbtb16: 1.04
DBP LogFold-Change Versus-Untreated: Zfp36: 1.53
DBP LogFold-Change Versus-Untreated: Zfp593: 1.01
Dbp NM_016974_at ≧2-Fold change: No
Deptor NM_001037937_at ≧2-Fold change: No
Dlgap4 NM_001042487_at ≧2-Fold change: No
Dlgap4 NM_001042488_at ≧2-Fold change: No
Dusp6 (NM_026268_at) ≧2-Fold change: Yes
Dusp7 (NM_153459_at) ≧2-Fold change: Yes
Ear5 NM_019398_at ≧2-Fold change: No
Epgn (NM_053087_at) ≧2-Fold change: Yes
Fam134b NM_001034851_at ≧2-Fold change: No
Gcdh NM_001044744_at ≧2-Fold change: No
Gm10228 XM_001474297_at ≧2-Fold change: No
Gm10228 XM_003086004_at ≧2-Fold change: No
Gm10229 XM_003086003_at ≧2-Fold change: No
Gsdmc NM_031378_at ≧2-Fold change: No
Gzmb (NM_013542_at) ≧2-Fold change: Yes
H19 NR_001592_at ≧2-Fold change: No
Havcr2 (NM_134250_at) ≧2-Fold change: Yes
Ier2 (NM_010499_at) ≧2-Fold change: Yes
Ier3 (NM_133662_at) ≧2-Fold change: Yes
Ifi202b (NM_011940_at) ≧2-Fold change: Yes
Il1f6 (NM_019450_at) ≧2-Fold change: Yes
Il1rl1 NM_001025602_at ≧2-Fold change: No
Il6 (NM_031168_at) ≧2-Fold change: Yes
Il20 (NM_021380_at) ≧2-Fold change: Yes
Inpp5a NM_001127363_at ≧2-Fold change: No
Inpp5d NM_001110192_at ≧2-Fold change: No
Inpp5d NM_001110193_at ≧2-Fold change: No
Jdp2 (NM_030887_at) ≧2-Fold change: Yes
Jun (NM_010591_at) ≧2-Fold change: Yes
Klhdc5 NM_001081237_at ≧2-Fold change: No
Klk6 (NM_011177_at) ≧2-Fold change: Yes
Klrb1b (NM_030599_at) ≧2-Fold change: Yes
Krt25 (NM_133730_at) ≧2-Fold change: Yes
Krt27 (NM_010666_at) ≧2-Fold change: Yes
Krt33a NM_027983_at ≧2-Fold change: No
Krt34 NM_027563_at ≧2-Fold change: No
Krt35 (NM_016880_at) ≧2-Fold change: Yes
Krt71 (NM_019956_at) ≧2-Fold change: Yes
Krtap1-5 NM_027157_at ≧2-Fold change: No
Krtap3-1 NM_023511_at ≧2-Fold change: No
Krtap3-3 NM_025524_at ≧2-Fold change: No
Krtap4-2 NM_026807_at ≧2-Fold change: No
Krtap4-16 (NM_001013823_at) ≧2-Fold change: No
Krtap5-2 NM_027844_at ≧2-Fold change: No
Krtap9-3 NM_029351_at ≧2-Fold change: No
Krtap13-1 NM_183189_at ≧2-Fold change: No
Krtap16-1 NM_130870_at ≧2-Fold change: No
Krtap16-5 NM_130857_at ≧2-Fold change: No
Krtap16-7 NM_028621_at ≧2-Fold change: No
Krtap16-8 NM_130856_at ≧2-Fold change: No
Krtap16-9 NM_130876_at ≧2-Fold change: No
Krtap16-10 NM_183296_at ≧2-Fold change: No
Krtap28-13 XM_896507_at ≧2-Fold change: No
Krtap28-13 XM_919110_at ≧2-Fold change: No
LOC100044068 (XM_001473873_at) ≧2-Fold change: Yes
LOC100503254 XM_003085741_at ≧2-Fold change: No
LOC100504977 (XM_003085794_at) ≧2-Fold change: Yes
Lmod2 NM_053098_at ≧2-Fold change: No
Lyz2 NM_017372_at ≧2-Fold change: No
Maff (NM_010755_at) ≧2-Fold change: Yes
Map3k6 (NM_016693_at) ≧2-Fold change: Yes
Mcoln2 (NM_026656_at) ≧2-Fold change: Yes
Mfhas1 NM_001081279_at ≧2-Fold change: No
Mfsd4 NM_001114662_at ≧2-Fold change: No
Mia1 NM_019394_at ≧2-Fold change: No
Mrpl44 NM_001081210_at ≧2-Fold change: No
Ms4a6d NM_026835_at ≧2-Fold change: No
Mt1 (NM_013602_at) ≧2-Fold change: Yes
Mylpf NM_016754_at ≧2-Fold change: No
Myoz2 NM_021503_at ≧2-Fold change: No
NA (AFFX-18SRNAMur/X00686_3_at) ≧2-Fold change: No
NA (AFFX-18SRNAMur/X00686_5_at) ≧2-Fold change: No
NA (AFFX-18SRNAMur/X00686_M_at) ≧2-Fold change: No
NA (AFFX-BioB-3_at) ≧2-Fold change: No
NA (AFFX-BioB-5_at) ≧2-Fold change: No
NA (AFFX-BioB-M_at) ≧2-Fold change: No
NA (AFFX-BioC-3_at) ≧2-Fold change: No
NA (AFFX-BioC-5_at) ≧2-Fold change: No
NA (AFFX-BioDn-3_at) ≧2-Fold change: No
NA (AFFX-BioDn-5_at) ≧2-Fold change: No
NA (AFFX-ThrX-5_at) ≧2-Fold change: No
Ncbp1 NM_001033201_at ≧2-Fold change: No
Nfil3 (NM_017373_at) ≧2-Fold change: Yes
Nfkbia (NM_010907_at) ≧2-Fold change: Yes
Nfkbiz (NM_030612_at) ≧2-Fold change: Yes
Nolc1 NM_001039351_at ≧2-Fold change: No
Nolc1 NM_001039352_at ≧2-Fold change: No
Nolc1 NM_001039353_at ≧2-Fold change: No
Nr4a2 (NM_013613_at) ≧2-Fold change: Yes
